Reference: US8487103B2 (Roche Palo Alto LLC, priority 2009, dated 2013)

What was measured:
[1] = tested on: HCV replicon cells (2209-23), genotype 1b replicon; assay: HCV Replicon Assay (Renilla luciferase reporter); format: cell-based, HCV genotype 1b; settings: Hepatitis C virus, 72 h; cell line 2209-23, luciferase activity after three days
[2] = molecular target: T1, HCV polymerase (NS5B570n-Con1) (Hepatitis C virus genotype 1b, UniProt Q9WMX2); assay: HCV NS5B RNA Polymerase Activity; format: biochemical, HCV Con1 strain
T1 construct: contains a 21 amino acid deletion at the C-terminus relative to the full-length HCV polymerase; 6-histidine (N); made in house; host or cells: E. coli BL21(DE) pLysS, plasmid pET 17b
Protocol: The enzymatic activity of HCV polymerase (NS5B570n-Con1) was measured as the incorporation of radiolabeled nucleotide monophosphates into acid insoluble RNA products. Unincorporated radiolabeled substrate was removed by filtration and scintillant was added to the washed and dried filter plate containing radiolabeled RNA product. The amount of RNA product generated by NS5B570-Con1 at the end of the reaction was directly proportional to the amount of light emitted by the scintillant.
The N-terminal 6-histidine tagged HCV polymerase, derived from HCV Con1 strain, genotype 1b (NS5B570n-Con1) contains a 21 amino acid deletion at the C-terminus relative to the full-length HCV polymerase and was purified from E. coli strain BL21(DE) pLysS. The construct, containing the coding sequence of HCV NS5B Con1 (GenBank accession number AJ242654) was inserted into the plasmid construct pET 17b, downstream of a T7 promoter expression cassette and transformed into E. coli. A single colony was grown overnight as a starter culture and later used inoculate 10 L of LB media supplemented with 100 μg/mL ampicillin at 37° C. Protein expression was induced by the addition of 0.25 mM isopropyl-β-D-thiogalactopyranoside (IPTG) when optical density at […] of the culture was between 0.6 and 0.8 and cells were harvested after 16 to 18 h at 30° C. NS5B570n-Con1 was purified to homogeneity using a three-step protocol including subsequent column chromatography on Ni-NTA, SP-Sepharose HP and Superdex 75 resins.
Each 50 μL enzymatic reaction contained 20 nM RNA template derived from the complementary sequence of the Internal Ribosome Entry Site (cIRES), 20 nM NS5B570n-Con1 enzyme, 0.5 μCi of tritiated UTP (Perkin Elmer catalog no. TRK-412; specific activity: 30 to 60 Ci/mmol; stock solution concentration from 7.5×10^−5 M to 20.6×10^−6 M), 1 μM each ATP, CTP, and GTP, 40 mM Tris-HCl pH 8.0, 40 mM NaCl, 4 mM DTT (dithiothreitol), 4 mM MgCl2, and 5 μl of compound serial diluted in DMSO. Reaction mixtures were assembled in 96-well filter plates (cat #MADVN0B, Millipore Co.) and incubated for 2 h at 30° C. Reactions were stopped by addition of 10% final (v/v) trichloroacetic acid and incubated for 40 min at 4° C. Reactions were filtered, washed with 8 reaction volumes of 10% (v/v) trichloroacetic acetic acid, 4 reaction volumes of 70% (v/v) ethanol, air dried, and 25 μl of scintillant (Microscint 20, Perkin-Elmer) was added to each reaction well.
The amount of light emitted from the scintillant was converted to counts per minute (CPM) on a Topcount® plate reader (Perkin-Elmer, Energy Range: Low, Efficiency Mode Normal, Count Time: 1 min, Background Subtract: none, Cross talk reduction: Off).
Data was analyzed in Excel® (Microsoft) and ActivityBase® (Idbs®). The reaction in the absence of enzyme was used to determine the background signal, which was subtracted from the enzymatic reactions. Positive control reactions were performed in the absence of compound, from which the background corrected activity was set as 100% polymerase activity. All data was expressed as a percentage of the positive control. The compound concentration at which the enzyme-catalyzed rate of RNA synthesis was reduced by 50% (IC50) was calculated by fitting equation (i) to the data where“Y”
[formula] corresponds to the relative enzyme activity (in %), “% Min” is the residual relative activity at saturating compound concentration, “% Max” is the relative maximum enzymatic activity, “X” corresponds to the compound concentration, and “S” is the Hill coefficient (or slope).

in vitro = settings: human
HCV = settings: cited from earlier work

Row | SMILES | IC50 [1] [nM] | IC50 [2] [nM] | CC50 at 3 days (in vitro) [µM] | melting point [°C] | serum amino transferase levels reduced to normal, share of patients (HCV; monotherapy) [%] | effect on serum HCV-RNA (HCV; sole treatment / monotherapy)
1 | COc1c(C(C)(C)C)cc(-c2ccc[nH]c2=O)c2ncc(N3CC[C@H](CNS(C)(=O)=O)C3)cc12 [Compound I-18, N-{(S)-1-[6-tert-Butyl-5-methoxy-8-(2-oxo-1,2-dihydro-pyridin-3-yl)-quinolin-3-yl]-pyrrolidin-3-ylmethyl}-methanesulfonamide] | 5.2 | 0.2 | 30.3 | 275 to 280 | – | –
2 | NC(=O)c1ncn([C@@H]2O[C@H](CO)[C@@H](O)[C@H]2O)n1 [ribavirin, 1-((2R,3R,4S,5R)-3,4-Dihydroxy-5-hydroxymethyl-tetrahydro-furan-2-yl)-1H-[1,2,4]triazole-3-carboxylic acid amide] | – | – | – | – | 40 | does not lower serum levels of HCV-RNA
